Results reported in patent US8580794B2 (AbbVie Inc., priority 2009, dated 2013).

Target: GST-Bc1-2 (Homo sapiens, UniProt P10415)
Assay: Time Resolved-Fluorescence Resonance Energy Transfer (TR-FRET) Bcl-2 binding assay with F-Bak peptide probe
Conditions: GST-Bcl-2 1 nM, F-Bak probe 100 nM, Tb-anti-GST 1 nM; '<' = below limit of detection; read-out: TR-FRET Bcl-2 Binding Ki

Chain of GST-Bc1-2 (P10415 whole entry): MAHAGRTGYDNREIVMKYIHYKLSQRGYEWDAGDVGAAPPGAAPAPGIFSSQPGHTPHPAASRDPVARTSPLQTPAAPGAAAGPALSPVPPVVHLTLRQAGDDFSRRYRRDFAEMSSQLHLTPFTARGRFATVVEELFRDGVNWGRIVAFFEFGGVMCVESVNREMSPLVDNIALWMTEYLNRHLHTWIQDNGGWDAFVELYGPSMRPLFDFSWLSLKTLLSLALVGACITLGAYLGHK

| Structure (SMILES) | Ki |
| --- | --- |
| CC1(C)CCC(CN2CCN(c3ccc(C(=O)NS(=O)(=O)c4ccc(N[C@H]5CC[C@@H](N6CCOCC6)C5)c([N+](=O)[O-])c4)c(Oc4cnc5[nH]ccc5c4)c3)CC2)=C(c2ccc(Cl)cc2)C1 [Example 111, 4-(4-{[2-(4-chlorophenyl)-4,4-dimethylcyclohex-1-en-1-yl]methyl}piperazin-1-yl)-N-[(4-{[(1S,3R)-3-morpholin-4-ylcyclopentyl]amino}-3-nitrophenyl)sulfonyl]-2-(1H-pyrrolo[2,3-b]pyridin-5-yloxy)benzamide] | < 0.01 nM |
| CC1(C)CCC(CN2CCN(c3ccc(C(=O)NS(=O)(=O)c4ccc(OC[C@@H]5CN(C6COC6)C[C@H]5CF)c([N+](=O)[O-])c4)c(Oc4cnc5[nH]ccc5c4)c3)CC2)=C(c2ccc(Cl)cc2)C1 (relative stereo) [Example 137, 4-(4-{[2-(4-chlorophenyl)-4,4-dimethylcyclohex-1-en-1-yl]methyl}piperazin-1-yl)-N-[(4-{[trans-4-(fluoromethyl)-1-oxetan-3-ylpyrrolidin-3-yl]methoxy}-3-nitrophenyl)sulfonyl]-2-(1H-pyrrolo[2,3-b]pyridin-5-yloxy)benzamide] | < 0.01 nM |
| CC1(C)CCC(CN2CCN(c3ccc(C(=O)NS(=O)(=O)c4ccc(OCC5(F)CCC(N(CCC#N)C6CC6)CC5)c([N+](=O)[O-])c4)c(Oc4cnc5[nH]ccc5c4)c3)CC2)=C(c2ccc(Cl)cc2)C1 (centres unmarked) [Example 363, 4-(4-{[2-(4-chlorophenyl)-4,4-dimethylcyclohex-1-en-1-yl]methyl}piperazin-1-yl)-N-{[4-({4-[(2-cyanoethyl)(cyclopropyl)amino]-1-fluorocyclohexyl}methoxy)-3-nitrophenyl]sulfonyl}-2-(1H-pyrrolo[2,3-b]pyridin-5-yloxy)benzamide] | 0.017 nM |
| CC1(C)CCC(CN2CCN(c3ccc(C(=O)NS(=O)(=O)c4cnc(OCC(C)(CO)CO)c(Cl)c4)c(Oc4cnc5[nH]ccc5c4)c3)CC2)=C(c2ccc(Cl)cc2)C1 [Example 250, N-({5-chloro-6-[3-hydroxy-2-(hydroxymethyl)-2-methylpropoxy]pyridin-3-yl}sulfonyl)-4-(4-{[2-(4-chlorophenyl)-4,4-dimethylcyclohex-1-en-1-yl]methyl}piperazin-1-yl)-2-(1H-pyrrolo[2,3-b]pyridin-5-yloxy)benzamide] | 0.412 nM |
| COCC1(C)CCC(c2ccc(Cl)cc2)=C(CN2CCN(c3ccc(C(=O)NS(=O)(=O)c4ccc(NCC5CCOCC5)c([N+](=O)[O-])c4)c(Oc4cnc5[nH]ccc5c4)c3)CC2)C1 (centres unmarked) [Example 360, 4-(4-{[2-(4-chlorophenyl)-5-(methoxymethyl)-5-methylcyclohex-1-en-1-yl]methyl}piperazin-1-yl)-N-({3-nitro-4-[(tetrahydro-2H-pyran-4-ylmethyl)amino]phenyl}sulfonyl)-2-(1H-pyrrolo[2,3-b]pyridin-5-yloxy)benzamide] | < 0.01 nM |
| CN1CCC(F)(COc2ncc(S(=O)(=O)NC(=O)c3ccc(N4CCN(CC5=C(c6ccc(Cl)cc6)CC(C)(C)CC5)CC4)cc3Oc3cnc4[nH]ccc4c3)cc2Cl)CC1 [Example 269, N-({5-chloro-6-[(4-fluoro-1-methylpiperidin-4-yl)methoxy]pyridin-3-yl}sulfonyl)-4-(4-{[2-(4-chlorophenyl)-4,4-dimethylcyclohex-1-en-1-yl]methyl}piperazin-1-yl)-2-(1H-pyrrolo[2,3-b]pyridin-5-yloxy)benzamide] | 0.016 nM |
| CC1(C)CCC(CN2CCN(c3ccc(C(=O)NS(=O)(=O)c4ccc(OCC5(F)CCOCC5)c(C(F)(F)F)c4)c(Oc4cnc5[nH]ccc5c4)c3)CC2)=C(c2ccc(Cl)cc2)C1 [Example 307, 4-(4-{[2-(4-chlorophenyl)-4,4-dimethylcyclohex-1-en-1-yl]methyl}piperazin-1-yl)-N-({4-[(4-fluorotetrahydro-2H-pyran-4-yl)methoxy]-3-(trifluoromethyl)phenyl}sulfonyl)-2-(1H-pyrrolo[2,3-b]pyridin-5-yloxy)benzamide] | 0.13 nM |
| CC1(C)CCC(CN2CCN(c3ccc(C(=O)NS(=O)(=O)c4ccc(NCC5CN(S(C)(=O)=O)CCO5)c([N+](=O)[O-])c4)c(Oc4cnc5[nH]ccc5c4)c3)CC2)=C(c2ccc(Cl)cc2)C1 (centres unmarked) [Example 319, 4-(4-{[2-(4-chlorophenyl)-4,4-dimethylcyclohex-1-en-1-yl]methyl}piperazin-1-yl)-N-{[4-({[4-(methylsulfonyl)morpholin-2-yl]methyl}amino)-3-nitrophenyl]sulfonyl}-2-(1H-pyrrolo[2,3-b]pyridin-5-yloxy)benzamide] | < 0.01 nM |
| CC1(C)CCC(CN2CCN(c3ccc(C(=O)NS(=O)(=O)c4ccc(NC5CCN(CC(F)F)CC5)c([N+](=O)[O-])c4)c(Oc4cnc5[nH]ccc5c4)c3)CC2)=C(c2ccc(Cl)cc2)C1 [Example 97, 4-(4-{[2-(4-chlorophenyl)-4,4-dimethylcyclohex-1-en-1-yl]methyl}piperazin-1-yl)-N-[(4-{[1-(2,2-difluoroethyl)piperidin-4-yl]amino}-3-nitrophenyl)sulfonyl]-2-(1H-pyrrolo[2,3-b]pyridin-5-yloxy)benzamide] | 0.017 nM |
| CC1(C)CCC(CN2CCN(c3ccc(C(=O)NS(=O)(=O)c4cc(F)c(NCC5CCOCC5)cc4Cl)c(Oc4cnc5[nH]ccc5c4)c3)CC2)=C(c2ccc(Cl)cc2)C1 [Example 54, N-({2-chloro-5-fluoro-4-[(tetrahydro-2H-pyran-4-ylmethyl)amino]phenyl}sulfonyl)-4-(4-{[2-(4-chlorophenyl)-4,4-dimethylcyclohex-1-en-1-yl]methyl}piperazin-1-yl)-2-(1H-pyrrolo[2,3-b]pyridin-5-yloxy)benzamide] | 2.07 nM |
| CC1(C)CCC(CN2CCN(c3ccc(C(=O)NS(=O)(=O)c4ccc(NC5CCN(C(CF)CF)CC5)c([N+](=O)[O-])c4)c(Oc4cnc5[nH]ccc5c4)c3)CC2)=C(c2ccc(Cl)cc2)C1 [Example 95, 4-(4-{[2-(4-chlorophenyl)-4,4-dimethylcyclohex-1-en-1-yl]methyl}piperazin-1-yl)-N-{[4-({1-[2-fluoro-1-(fluoromethyl)ethyl]piperidin-4-yl}amino)-3-nitrophenyl]sulfonyl}-2-(1H-pyrrolo[2,3-b]pyridin-5-yloxy)benzamide] | 0.014 nM |
| CC1(C)CCC(CN2CCN(c3ccc(C(=O)NS(=O)(=O)c4ccc(OCC5(F)CCN(C(=O)OC(C)(C)C)CC5)c([N+](=O)[O-])c4)c(Oc4cnc5[nH]ccc5c4)c3)CC2)=C(c2ccc(Cl)cc2)C1 [Example 126, tert-butyl 4-{[4-({[4-(4-{[2-(4-chlorophenyl)-4,4-dimethylcyclohex-1-en-1-yl]methyl}piperazin-1-yl)-2-(1H-pyrrolo[2,3-b]pyridin-5-yloxy)benzoyl]amino}sulfonyl)-2-nitrophenoxy]methyl}-4-fluoropiperidine-1-carboxylate] | < 0.01 nM |
| CC1(C)CC(c2ccc(Cl)cc2)=C(CN2CCN(c3ccc(C(=O)NS(=O)(=O)c4ccc(NCC5CCOCC5)c([N+](=O)[O-])c4)c(Oc4ccc5[nH]ccc5c4)c3)CC2)CO1 [Example 23, 4-(4-{[4-(4-chlorophenyl)-6,6-dimethyl-5,6-dihydro-2H-pyran-3-yl]methyl}piperazin-1-yl)-2-(1H-indol-5-yloxy)-N-({3-nitro-4-[(tetrahydro-2H-pyran-4-ylmethyl)amino]phenyl}sulfonyl)benzamide] | 0.083 nM |
| CC1(C)CCC(CN2CCN(c3ccc(C(=O)NS(=O)(=O)c4cnc(OCC5CCOCC5)c(C#N)c4)c(Oc4cnc5[nH]ccc5c4)c3)CC2)=C(c2ccc(Cl)cc2)C1 [Example 36, 4-(4-{[2-(4-chlorophenyl)-4,4-dimethylcyclohex-1-en-1-yl]methyl}piperazin-1-yl)-N-{[5-cyano-6-(tetrahydro-2H-pyran-4-ylmethoxy)pyridin-3-yl]sulfonyl}-2-(1H-pyrrolo[2,3-b]pyridin-5-yloxy)benzamide] | 0.017 nM |
| CC1(C)CCC(CN2CCN(c3ccc(C(=O)NS(=O)(=O)c4ccc(NC5CCN(C6COC6)CC5)c([N+](=O)[O-])c4)c(Oc4cnc5[nH]ccc5c4)c3)CC2)=C(c2ccc(Cl)cc2)C1 [Example 139, 4-(4-{[2-(4-chlorophenyl)-4,4-dimethylcyclohex-1-en-1-yl]methyl}piperazin-1-yl)-N-({3-nitro-4-[(1-oxetan-3-ylpiperidin-4-yl)amino]phenyl}sulfonyl)-2-(1H-pyrrolo[2,3-b]pyridin-5-yloxy)benzamide] | < 0.01 nM |
| CC1(C)CCC(CN2CCN(c3ccc(C(=O)NS(=O)(=O)c4ccc(NCC5CCN(C(CF)CF)CC5)c([N+](=O)[O-])c4)c(Oc4cnc5[nH]ccc5c4)c3)CC2)=C(c2ccc(Cl)cc2)C1 [Example 172, 4-(4-{[2-(4-chlorophenyl)-4,4-dimethylcyclohex-1-en-1-yl]methyl}piperazin-1-yl)-N-({4-[({1-[2-fluoro-1-(fluoromethyl)ethyl]piperidin-4-yl}methyl)amino]-3-nitrophenyl}sulfonyl)-2-(1H-pyrrolo[2,3-b]pyridin-5-yloxy)benzamide] | < 0.01 nM |
| CC1(C)CCC(CN2CCN(c3ccc(C(=O)NS(=O)(=O)c4ccc(N[C@H]5CC[C@H](NC6CCOCC6)CC5)c([N+](=O)[O-])c4)c(Oc4cnc5[nH]ccc5c4)c3)CC2)=C(c2ccc(Cl)cc2)C1 [Example 123, Trans-4-(4-{[2-(4-chlorophenyl)-4,4-dimethylcyclohex-1-en-1-yl]methyl}piperazin-1-yl)-N-[(3-nitro-4-{[4-(tetrahydro-2H-pyran-4-ylamino)cyclohexyl]amino}phenyl)sulfonyl]-2-(1H-pyrrolo[2,3-b]pyridin-5-yloxy)benzamide] | < 0.01 nM |
| O=C(NS(=O)(=O)c1ccc(NCCCN2CCOCC2)c([N+](=O)[O-])c1)c1ccc(N2CCN(Cc3ccccc3-c3ccc(Cl)cc3)CC2)cc1Oc1ccc2[nH]ccc2c1 [Example 88, 4-{4-[(4′-chloro-1,1′-biphenyl-2-yl)methyl]piperazin-1-yl}-2-(1H-indol-5-yloxy)-N-({4-[(3-morpholin-4-ylpropyl)amino]-3-nitrophenyl}sulfonyl)benzamide] | 0.672 nM |

Same assay, conditions: Table 4, selected compounds of Ser. No. 12/631,404; read-out: Bcl-2 FRET Ki

| Structure (SMILES) | Ki |
| --- | --- |
| CC1(C)CC(c2ccc(Cl)cc2)=C(CN2CCN(c3ccc(C(=O)NS(=O)(=O)c4ccc(NCC5CCOCC5)c([N+](=O)[O-])c4)c(Oc4ccc5[nH]ccc5c4)c3)CC2)CO1 [Example 23, 4-(4-{[4-(4-chlorophenyl)-6,6-dimethyl-5,6-dihydro-2H-pyran-3-yl]methyl}piperazin-1-yl)-2-(1H-indol-5-yloxy)-N-({3-nitro-4-[(tetrahydro-2H-pyran-4-ylmethyl)amino]phenyl}sulfonyl)benzamide] | 0.083 nM |

Same assay, conditions: Table 5, direct comparison Z=N vs Z=C analogs; read-out: Bcl-2 FRET ki

| Structure (SMILES) | Ki |
| --- | --- |
| CC1(C)CC(c2ccc(Cl)cc2)=C(CN2CCN(c3ccc(C(=O)NS(=O)(=O)c4ccc(NCC5CCOCC5)c([N+](=O)[O-])c4)c(Oc4ccc5[nH]ccc5c4)c3)CC2)CO1 [Example 23, 4-(4-{[4-(4-chlorophenyl)-6,6-dimethyl-5,6-dihydro-2H-pyran-3-yl]methyl}piperazin-1-yl)-2-(1H-indol-5-yloxy)-N-({3-nitro-4-[(tetrahydro-2H-pyran-4-ylmethyl)amino]phenyl}sulfonyl)benzamide] | 0.083 nM |
